Reference: US20080118990A1, “Assay For Lipoproteins Using Lumiphore K-37” (Science and Technology Facilities Council, priority 2004, published 2008)

Experiments:
[1] = test system: LDL; experiment: Nile Red fluorescence in LDL with and without octanoate (Example 3); type: binding
[2] = test system: LDL; experiment: K-37 fluorescence in LDL with and without octanoate (Example 2); type: binding
Experimental: The dye K-37 was added at a concentration of 0.5 mM to LDL at a total lipid concentration of 5 mM, in the presence and absence of 50 mg/ml HSA. Measurements were made with and without the addition of 0.1 M sodium octanoate, which acted as a ligand binding inhibitor.

[3] = target: drug binding domain of HSA (Homo sapiens, UniProt P02768); experiment: Displacement of Nile Red from HSA by agents that block the drug binding domain (Example 6); settings: agent at about 5 mM, without affecting the lipoprotein fluorescence
Source text: (§1) This lead the inventors to realise that the HDL/Nile red assay may be improved further by using an additional blocker. They tried agents that block the drug binding domain of HSA. […] The benzoic acid has the added bonus of quenching the Nile Red residual fluorescence in solution by about 20%.

[4] = Quenching of Nile Red residual fluorescence in solution (Example 6); type: physicochemical
Source text: as §1

[5] = target: T1, Human Serum Albumin (HSA) (Homo sapiens, UniProt P02768); experiment: K-37 fluorescence with HSA with and without octanoate, blocking of HSA (Example 2)
[6] = test system: HDL; experiment: Nile Red fluorescence in HDL compared with VLDL and LDL at different excitation wavelengths (Example 6); design: species or system human
Experimental: Further optimisation of the assay according to the invention Further tests were performed on human serum samples to investigate optimum excitation wavelengths for inducing fluorescence indicative of HDL levels according to the method of the invention.
The inventors tested a number of wavelengths and have established that, when using Nile Red, that an excitation wavelength of 600 nm and an emission wavelength of 620 nm gives optimal results (see FIG. 15). The inventors were surprised that this excitation wavelength was optimal because it is to the very long wavelength edge of the spectrum.
For certain samples the inventors observed a noisier plot with an excitation wavelength of 460 nm and an emission wavelength of 620 nm (see FIG. 16).
The inventors believe that Nile Red is about 5 times more fluorescent in HDL than VLDL and LDL when excited at 600 nm as opposed to excitation at 460 nm where it is only about 2 times more fluorescent. This gives a better signal to noise when subtracting from the standard curve of LDL plus VLDL.

[7] = target: T1, Human Serum Albumin (HSA); experiment: Nile Red fluorescence with HSA with and without octanoate (Example 3); type: binding

T1 sequence (P02768 25-609): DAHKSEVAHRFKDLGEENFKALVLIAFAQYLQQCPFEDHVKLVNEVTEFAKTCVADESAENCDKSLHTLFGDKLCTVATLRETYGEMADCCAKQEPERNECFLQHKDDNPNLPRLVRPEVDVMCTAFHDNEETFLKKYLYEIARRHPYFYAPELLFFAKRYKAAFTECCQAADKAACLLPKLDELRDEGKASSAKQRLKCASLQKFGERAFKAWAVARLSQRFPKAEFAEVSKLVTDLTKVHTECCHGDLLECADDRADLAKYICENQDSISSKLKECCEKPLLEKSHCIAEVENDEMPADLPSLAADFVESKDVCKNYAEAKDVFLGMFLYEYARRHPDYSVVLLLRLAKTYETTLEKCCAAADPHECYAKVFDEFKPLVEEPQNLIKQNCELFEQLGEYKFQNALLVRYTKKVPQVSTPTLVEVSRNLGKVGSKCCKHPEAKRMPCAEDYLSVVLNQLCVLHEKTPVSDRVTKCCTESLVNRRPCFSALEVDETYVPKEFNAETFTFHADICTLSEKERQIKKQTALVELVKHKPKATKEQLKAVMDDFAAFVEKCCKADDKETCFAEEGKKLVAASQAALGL
Chain of drug binding domain of HSA (P02768 25-609): as above

Question: Which “effect of octanoate on Nile Red fluorescence in LDL” value ([1]; 50 mM octanoate, 5 mM LDL, 0.5 mM Nile Red) does the source give for `CCCCCCCC(=O)[O-].[Na+]` [octanoate, sodium octanoate] here?
Answer: little effect

Question: What about the “effect of octanoate on K-37 fluorescence in LDL” value ([2]; 0.1 M sodium octanoate, 5 mM LDL, 0.5 mM K-37) of the same compound?
Answer: little effect

Question: What does the source list for `O=C(O)c1ccccc1` [benzoic acid]?
Answer: displacement of Nile Red from HSA [3]: worked to displace the Nile Red from HSA; quenching of Nile Red residual fluorescence in solution [4]: about 20%

Question: Which “Fluorescence Intensity” value ([5]; 0.5 mM K-37 plus 50 mg/ml HSA + 0.1 M sodium octanoate) does the source give for `CN(C)c1ccc(/C=C/C(=O)c2ccc(S(=O)(=O)C(F)F)cc2)cc1` [K-37, 4-dimethylamino-4′-difluoromethyl-sulphonyl-benzylidene-acetophenone] here?
Answer: 3600 units

Question: What about the “Fluorescence Intensity” value ([5]; 0.5 mM K-37 plus 50 mg/ml HSA, no octanoate) of the same compound?
Answer: 79300 units

Question: What about the “Fluorescence Intensity” value ([2]; 0.5 mM K-37 plus 5 mM LDL + 0.1 M sodium octanoate) of the same compound?
Answer: 209700 units

Question: What about the “Fluorescence Intensity” value ([2]; 0.5 mM K-37 plus 5 mM LDL, no octanoate) of the same compound?
Answer: 213500 units

Question: Which “Fluorescence Intensity” value ([1]; 0.5 mM Nile Red plus 5 mM LDL + 50 mM octanoate) does the source give for `CCN(CC)c1ccc2nc3c4ccccc4c(=O)cc-3oc2c1` [Nile Red] here?
Answer: 183.786 units

Question: And the “Fluorescence Intensity” value ([1]; 0.5 mM Nile Red plus 5 mM LDL, no octanoate)?
Answer: 187.532 units

Question: What about the “times more fluorescent in HDL than VLDL and LDL” value ([6]; excitation at 460 nm) of the same compound?
Answer: about 2 times

Question: What about the “times more fluorescent in HDL than VLDL and LDL” value ([6]; excited at 600 nm) of the same compound?
Answer: about 5 times

Question: What about the “Fluorescence Intensity” value ([7]; 0.5 mM Nile Red plus 50 mg/ml HSA + 50 mM octanoate) of the same compound?
Answer: 9.118 units

Question: What about the “Fluorescence Intensity” value ([7]; 0.5 mM Nile Red plus 50 mg/ml HSA, no octanoate) of the same compound?
Answer: 58.905 units
